Entries after “also recorded” stand apart in the source; their conditions may differ.
Assays:
[1] = test system: Fmr1 KO mice; experiment: Metabolic activities (glucose and lipid) of Fmr1 KO mice; type: in vivo, mouse; details: Fmr1 KO mice vs FVB mice; FIG. 4C
Description: The altered metabolic activities indicated sympathetic dysregulation (i.e., catecholaminergic disequilibrium). Dopaminergic activity modulates sympathetic activation.
(§1) The study compared learning and memory behaviors of the different drug treated and untreated (vehicle) Fmr1 KO mice with FVB mice (a background strain of the transgenic Fmr1 KO mice; “FVB” refers to the susceptibility of FVB mice to Friend leukemia virus B). Male mice (FVB.129P2-Pde6b<+> Tyr<c-ch>Fmr1<tm1Cgr>/J (Stock No: 004624 |FMR1 KO)) were used as the FXS/autism model and age-matched male mice (FVB.129P2-Pde6b<+> Tyr<c-ch>/AntJ) were used as the controls (Bernardet, M. and W. E. Crusio, Fmr1 KO mice as a possible model of autistic features. Scientific WorldJournal, 2006. 6: p. 1164-76. Hays, S. A., K. M. Huber, and J. R. Gibson, Altered neocortical rhythmic activity states in Fmr1 KO mice are due to enhanced mGluR5 signaling and involve changes in excitatory circuitry. J Neurosci, 2011. 31(40): p. 14223-34. Willemsen, R. and R. F. Kooy, Mouse models of fragile X-related disorders. Dis Model Mech, 2023. 16(2).).
Such alterations indicated an excessive sympathetic activation.

[2] = test system: Fmr1 KO mice; experiment: Novel object recognition test (learning and memory) in Fmr1 KO mice; type: in vivo, mouse; details: Fmr1 KO mice vs vehicle and FVB mice, daily oral treatment from P21, ACT01 25 mg/kg, FIG. 4D
Description: as §1
Unexpected drug-combination effects on rodent learning and memory: Novel object recognition test was used to assess treatment effects of different catecholaminergic mediations (including drug combinations) on cognitive behavior, i.e., learning and memory. […]

## 3-(phenylpropyl)-sydnonimine-N-phenylcarbamoyl [ACT01]
[1]
  glucose and lipid metabolisms (metabolic activities): normalized the glucose and lipid metabolisms; also recorded: normalized the metabolic activities
[2]
  learning and memory ability (NOR index = novel object recognition index): significantly (p<0.05) improved; also recorded: positively enhance

Source: patent US20260191829A1, “Compositions and Methods of Treating Neurological Conditions” (DRI Biosciences Corporation, priority 2022, published 2026)
